Experiment [1] relates to E. coli. Description: Test Example 2: preventing formation of bacterial CGC in vitro (K-B method). It counts as cell-based. The procedure:
(§1) E. coli (No. 33310, purchased from Chengdu Institute of Biological Products, the Ministry of Public Health) was used in the tests. Grid design was performed by using antibiotic with different concentrations and N-acetyl-D-glucosamine having an amount of from 10 mg to 300 mg. Streak plates were conducted separately, and K-B method was employed for drugs. Colonies at marginal part of drug inhibition zone were picked and were observed under microscope. If cell length was more than 50 μm and cell number was more than 5 in each visual field, it was deemed as CGC positive and was marked with “+”; while if cell length was not greater than 50 μm and cell number was within the range from 0 to 4 in each visual field, it was deemed as CGC negative and was marked with “−”. At this time, the ratio of two substances was called “effective ratio”.
(§2) Effects tests of compound preparation comprising N-acetyl-D-glucosamine and antibiotics for preventing the formation of bacterial CGC in vitro.
(§3) The tests were carried out in vitro, wherein gram-negative amphimicrodes, gram-negative anaerobes and gram-positive aerobes were separately coated on streak plates, test drugs and control drugs were separately dissolved with same volume of sterile water for injection, 10 μl of each drug was used for preparing drug-sensitive paper, K-B method was employed in the tests of drugs, and the inhibition situations of CGC formation were observed.

Experiment [2] concerns Nucleic Acid Bacter. Described as above. It counts as cell-based. As to the method:
as §1, §2, §3

Experiment [3] has as its system Diphtheroid bacillus. The experiment is described as above. Type of experiment: cell-based. The procedure: as §1, §2, §3
The subject of experiment [4] is Bacillus cereus. Described as above. Type of experiment: cell-based. The procedure:
as §1, §2, §3

Experiment [5] deals with Bacteroides fragilis. The description is as above. Type of experiment: cell-based. As to the method:
as §1, §2, §3

In experiment [6] the test system is Bacillus proteus. Described as above. Type of experiment: cell-based. As to the method: as §1, §2, §3
The test system of experiment [7] is Klebsiella. Described as above. It counts as cell-based. As to the method: as §1, §2, §3
In experiment [8] the test system is Listeria. Described as above. Type of experiment: cell-based. The procedure:
as §1, §2, §3

Experiment [9] deals with Citro Bacter. Described as above. It counts as cell-based. The procedure:
as §1, §2, §3

Experiment [10] relates to irritable bowel syndrome (IBS) caused by bacterial CGC. Description: Test Example 5: preventing irritable bowel syndrome (IBS) caused by bacterial CGC. Type of experiment: in vivo, rats. The settings on record: for CGCs in the rat stools after one week of drug withdrawal / CGCs in the stools of the rats: rats, effective dosage for consecutive 10 days, 30 rats per group; for CGCs in the stools of the rats: stools observed during administration and within 1 week after drug withdrawal. The text has this:
On this basis, the rats were subjected to stimulations such as electric stimulation, intragastric administration with fructus zanthoxyli water, cold, constraint etc. in order to induce IBS, and the incidence rates of IBS of two groups were observed.

For experiment [11], the system named is rats infected and not infected by Bacillus typhi murium. Type of experiment: in vivo, Wistar rats. The settings on record: rats infected or not by Bacillus typhi murium, consecutive week, 15 rats per group.
The mark [12] stands for this setting: compound preparation N-acetyl-D-glucosamine (100 mg) and chloramphenicol (400 mg), control chloramphenicol (400 mg).
[13] abbreviates: first of three values given respectively: electric stimulation.
The mark [14] stands for this setting: second of three values given respectively: intragastric administration with fructus zanthoxyli water.
[15] abbreviates: third of three values given respectively: cold, constraint etc.
The mark [16] stands for this setting: compound injection 100 mg N-acetyl-D-glucosamine + 300 mg kanamycin, control kanamycin same dose.
The mark [17] stands for this setting: compound preparation N-acetyl-D-glucosamine (100 mg) and lincomycin (400 mg), control lincomycin (400 mg).

Like-named read-outs stand apart in the source and are kept apart here.

Consider `O=C(N[C@H](CO)[C@H](O)c1ccc([N+](=O)[O-])cc1)C(Cl)Cl` [Chloramphenicol, chloramphenicol], for which the CGC formation result in [1] (setting [12]) was “+ (If cell length was more than 50 μm and cell number was more than 5 in each visual field, it was deemed as CGC positive and was marked with “+”)”; in experiment [2] (setting [12]), “+ (If cell length was more than 50 μm and cell number was more than 5 in each visual field, it was deemed as CGC positive and was marked with “+”)”; in experiment [3] (setting [12]) it was “+ (If cell length was more than 50 μm and cell number was more than 5 in each visual field, it was deemed as CGC positive and was marked with “+”)”; in [4] (setting [12]) it was “+ (If cell length was more than 50 μm and cell number was more than 5 in each visual field, it was deemed as CGC positive and was marked with “+”)”; in experiment [5] (setting [12]), “+ (If cell length was more than 50 μm and cell number was more than 5 in each visual field, it was deemed as CGC positive and was marked with “+”)”; in experiment [6] (setting [12]), “+ (If cell length was more than 50 μm and cell number was more than 5 in each visual field, it was deemed as CGC positive and was marked with “+”)”. Further, the CGC formation result was “+ (If cell length was more than 50 μm and cell number was more than 5 in each visual field, it was deemed as CGC positive and was marked with “+”)” in experiment [7] (setting [12]); “+ (If cell length was more than 50 μm and cell number was more than 5 in each visual field, it was deemed as CGC positive and was marked with “+”)” in experiment [8] (setting [12]); “+ (If cell length was more than 50 μm and cell number was more than 5 in each visual field, it was deemed as CGC positive and was marked with “+”)” in experiment [9] (setting [12]). Moreover, the “incidence rate of IBS” value in [10] (setting [13]), in experiment [10] (setting [14]) and in [10] (setting [15]) was 33% each time. In addition, the “CGCs in the rat stools after one week of drug withdrawal” value in experiment [10] was “still present”. In addition, the “CGCs in the stools of the rats” value in experiment [10] is listed as “a large amount of CGCs appeared”. Further, the “positive rates of stool CGC and intestinal mucosa CGC” value (from here on “positive rates”) in experiment [11] (N-acetyl-D-glucosamine (100 mg)+chloramphenical (400 mg) vs only chloramphenicol) is 100%.

As to `NC[C@H]1O[C@H](O[C@H]2[C@H](O)[C@@H](O[C@H]3O[C@H](CO)[C@@H](O)[C@H](N)[C@H]3O)[C@H](N)C[C@@H]2N)[C@H](O)[C@@H](O)[C@@H]1O` [Kanamycin, kanamycin], the CGC formation result in [1] (setting [16]) is “+ (If cell length was more than 50 μm and cell number was more than 5 in each visual field, it was deemed as CGC positive and was marked with “+”)”; in [2] (setting [16]), “+ (If cell length was more than 50 μm and cell number was more than 5 in each visual field, it was deemed as CGC positive and was marked with “+”)”; in experiment [3] (setting [16]), “+ (If cell length was more than 50 μm and cell number was more than 5 in each visual field, it was deemed as CGC positive and was marked with “+”)”; in [4] (setting [16]), “+ (If cell length was more than 50 μm and cell number was more than 5 in each visual field, it was deemed as CGC positive and was marked with “+”)”; in experiment [5] (setting [16]), “+ (If cell length was more than 50 μm and cell number was more than 5 in each visual field, it was deemed as CGC positive and was marked with “+”)”; in experiment [6] (setting [16]), “+ (If cell length was more than 50 μm and cell number was more than 5 in each visual field, it was deemed as CGC positive and was marked with “+”)”. The CGC formation result in [7] (setting [16]) is “+ (If cell length was more than 50 μm and cell number was more than 5 in each visual field, it was deemed as CGC positive and was marked with “+”)”; in [8] (setting [16]), “+ (If cell length was more than 50 μm and cell number was more than 5 in each visual field, it was deemed as CGC positive and was marked with “+”)”; in [9] (setting [16]), “+ (If cell length was more than 50 μm and cell number was more than 5 in each visual field, it was deemed as CGC positive and was marked with “+”)”. In addition, the “incidence rate of IBS” value in experiment [10] (setting [13]), in [10] (setting [14]) and in experiment [10] (setting [15]) was 33% each time. For the same molecule, the “positive rates” value in experiment [11] (N-acetyl-D-glucosamine (100 mg)+kanamycin (200 mg) vs only kanamycin) is given as 100%.

As to `CCC[C@@H]1C[C@@H](C(=O)N[C@@H]([C@H]2O[C@H](SC)[C@H](O)[C@@H](O)[C@H]2O)[C@@H](C)O)N(C)C1` [Lincomycin, lincomycin], the CGC formation result in [1] (setting [17]) was “+ (If cell length was more than 50 μm and cell number was more than 5 in each visual field, it was deemed as CGC positive and was marked with “+”)”; in experiment [2] (setting [17]), “+ (If cell length was more than 50 μm and cell number was more than 5 in each visual field, it was deemed as CGC positive and was marked with “+”)”; in experiment [3] (setting [17]), “+ (If cell length was more than 50 μm and cell number was more than 5 in each visual field, it was deemed as CGC positive and was marked with “+”)”; in experiment [4] (setting [17]), “+ (If cell length was more than 50 μm and cell number was more than 5 in each visual field, it was deemed as CGC positive and was marked with “+”)”; in experiment [5] (setting [17]), “+ (If cell length was more than 50 μm and cell number was more than 5 in each visual field, it was deemed as CGC positive and was marked with “+”)”; in experiment [6] (setting [17]), “+ (If cell length was more than 50 μm and cell number was more than 5 in each visual field, it was deemed as CGC positive and was marked with “+”)”. Further, the CGC formation result in experiment [7] (setting [17]) is “+ (If cell length was more than 50 μm and cell number was more than 5 in each visual field, it was deemed as CGC positive and was marked with “+”)”; in experiment [8] (setting [17]), “+ (If cell length was more than 50 μm and cell number was more than 5 in each visual field, it was deemed as CGC positive and was marked with “+”)”; in experiment [9] (setting [17]), “+ (If cell length was more than 50 μm and cell number was more than 5 in each visual field, it was deemed as CGC positive and was marked with “+”)”. The “incidence rate of IBS” value in experiment [10] (setting [13]), in [10] (setting [14]) and in experiment [10] (setting [15]) was 33% throughout. Moreover, the “CGCs in the rat stools after one week of drug withdrawal” value in experiment [10] was “still present”. Further, the “CGCs in the stools of the rats” value in experiment [10] was “a large amount of CGCs appeared”. The “positive rates” value in [11] (N-acetyl-D-glucosamine (100 mg)+lincomycin (400 mg) vs only lincomycin) came to 100%.

Values taken from patent US20070191291A1, “Compound antibacterial drugs comprising n-acetyl-d-glucosamine” (priority 2003, published 2007).
